Assay results taken from patent US11180474B2 (BRISTOL-MYERS SQUIBB COMPANY, priority 2016, dated 2021).

Experiments:
human TLR7 = target: T1, human TLR7 (Homo sapiens, UniProt Q9NYK1); assay: TLR7 inhibition reporter assay (HEK-Blue cells, SEAP reporter, gardiquimod stimulation); type: cell-based; details: HEK-Blue cells overexpressing human TLR7, gardiquimod 7.5 μM
T1 construct: host or cells: HEK-Blue cells
T1 sequence (Q9NYK1 27-1049): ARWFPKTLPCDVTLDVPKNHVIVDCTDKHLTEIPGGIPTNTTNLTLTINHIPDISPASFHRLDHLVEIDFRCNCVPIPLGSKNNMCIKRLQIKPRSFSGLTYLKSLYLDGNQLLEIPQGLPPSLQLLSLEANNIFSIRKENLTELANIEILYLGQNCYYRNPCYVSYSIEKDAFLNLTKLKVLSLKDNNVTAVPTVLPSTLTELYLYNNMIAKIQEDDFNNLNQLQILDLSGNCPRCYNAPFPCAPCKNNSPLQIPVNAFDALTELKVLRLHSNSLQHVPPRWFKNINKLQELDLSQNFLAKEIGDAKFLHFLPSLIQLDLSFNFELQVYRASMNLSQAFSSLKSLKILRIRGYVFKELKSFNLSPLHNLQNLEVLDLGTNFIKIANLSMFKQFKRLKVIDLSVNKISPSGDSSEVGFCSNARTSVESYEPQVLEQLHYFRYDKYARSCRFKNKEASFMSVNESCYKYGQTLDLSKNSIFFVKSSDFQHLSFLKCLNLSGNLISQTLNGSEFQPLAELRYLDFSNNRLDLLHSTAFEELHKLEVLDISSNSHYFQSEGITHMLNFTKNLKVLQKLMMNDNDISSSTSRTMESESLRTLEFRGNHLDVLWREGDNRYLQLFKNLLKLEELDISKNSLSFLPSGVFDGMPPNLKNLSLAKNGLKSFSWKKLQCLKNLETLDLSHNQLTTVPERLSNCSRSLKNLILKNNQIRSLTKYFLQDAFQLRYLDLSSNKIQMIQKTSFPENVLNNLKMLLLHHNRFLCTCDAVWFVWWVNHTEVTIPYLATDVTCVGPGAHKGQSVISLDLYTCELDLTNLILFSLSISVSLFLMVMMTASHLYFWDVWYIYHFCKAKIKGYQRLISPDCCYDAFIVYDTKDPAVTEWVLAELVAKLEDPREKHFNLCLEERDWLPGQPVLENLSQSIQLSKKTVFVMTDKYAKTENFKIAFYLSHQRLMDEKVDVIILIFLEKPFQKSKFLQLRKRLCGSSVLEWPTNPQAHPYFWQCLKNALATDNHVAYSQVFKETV
Procedure, shortened: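 Cells (15000/well for TLR7, 20,000 for TLR8) were treated with compounds over 0.05 nM-50 μM final. After 22 h at 37° C, 5% CO2, SEAP was measured with HEK-Blue Detection reagent; percent inhibition was taken as reduction of agonist-plus-DMSO signal relative to a known inhibitor.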

TLR7 = assay: In vivo mouse TLR7 PD model (gardiquimod challenge, plasma IL-6); details: oral
Protocol: In Vivo Mouse TLR7 and TLR9 PD Model:
Adult male C57BL/6 mice were used for the experiments. Mice (7 to 10 per group) were randomized into different treatment groups based on body weight. Mice from the respective treatment groups were administered orally with vehicle or test compound. Thirty min after the oral administration of vehicle or test compound, mice were challenged with intraperitoneal injection of gardiquimod for TLR7 PD model and CpG-ODN for TLR9 PD model. Ninety minutes after gardiquimod injection and 120 minutes after CpG-ODN injection, mice were bled under isoflurane anaesthesia and plasma IL-6 level was estimated by using commercially available ELISA kit (BD Biosciences). At the end of experiment, mean cytokine data was plotted and one way ANOVA with Dunnett's test was performed to calculate the significance of test compound treated group vs. vehicle control group. Percent inhibition of cytokine induction was calculated for test compound treated group vs vehicle control group.

SMILES	IC50 (human TLR7) [nM]	also measured
COc1ccc(-c2[nH]c3ccc(C4CCN(C(=O)CN5CCC[C@@H](C(=O)N6CC7CNCC7C6)C5)CC4)cc3c2C(C)C)cc1OC (stereo partly drawn) [Example 310, 1-(4-(2-(3,4-dimethoxyphenyl)-3-isopropyl-1H-indol-5-yl)piperidin-1-yl)-2-((3R)-3-(octahydropyrrolo[3,4-c]pyrrole-2-carbonyl)piperidin-1-yl) ethan-1-one]	290	–
COc1ccc(-c2[nH]c3ccc(C4CCN(C(=O)CN5CCC[C@@H](C(=O)N6C(C)CCC6C)C5)CC4)cc3c2C(C)C)cc1OC (stereo partly drawn) [Example 311, 1-(4-(2-(3,4-dimethoxyphenyl)-3-isopropyl-1H-indol-5-yl)piperidin-1-yl)-2-((3R)-3-(2,5-dimethylpyrrolidine-1-carbonyl)piperidin-1-yl)ethan-1-one]	148	–
COc1ccc(-c2[nH]c3ccc(C4CCN(C(=O)CO)CC4)cc3c2C(C)C)cc1OC [Example 313, 1-(4-(2-(3,4-dimethoxyphenyl)-3-isopropyl-1H-indol-5-yl)piperidin-1-yl)-2-hydroxyethanone]	73	–
COc1ccc(-c2[nH]c3ccc(C4CCN(C(=O)COC(C)C)CC4)cc3c2C(C)C)cc1OC [Example 314, 1-(4-(2-(3,4-dimethoxyphenyl)-3-isopropyl-1H-indol-5-yl)piperidin-1-yl)-2-isopropoxyethan-1-one]	284	–

Molecules with a lower IC50 (human TLR7), results first:

IC50 (human TLR7) [nM]	SMILES	also measured
52	COc1ccc(-c2[nH]c3ccc(C4CCN(C(=O)CN5CCC[C@@H](C(=O)N6CCN(CCN7CCCC7)CC6)C5)CC4)cc3c2C(C)C)cc1OC [Example 307, (R)-1-(4-(2-(3,4-dimethoxyphenyl)-3-isopropyl-1H-indol-5-yl)piperidin-1-yl)-2-(3-(4-(2-(pyrrolidin-1-yl)ethyl)piperazine-1-carbonyl)piperidin-1-yl)ethan-1-one]	–
37	COc1ccc(-c2[nH]c3ccc(C4CCN(C(=O)CN5CCC[C@@H](C(=O)NCC#N)C5)CC4)cc3c2C(C)C)cc1OC [Example 308, (R)—N-(cyanomethyl)-1-(2-(4-(2-(3,4-dimethoxyphenyl)-3-isopropyl-1H-indol-5-yl)piperidin-1-yl)-2-oxoethyl)piperidine-3-carboxamide]	–
31	COc1ccc(-c2[nH]c3ccc(C4CCN(C(=O)CN5CCC[C@@H](C(=O)NCC(N)=O)C5)CC4)cc3c2C(C)C)cc1OC [Example 309, (R)—N-(2-amino-2-oxoethyl)-1-(2-(4-(2-(3,4-dimethoxyphenyl)-3-isopropyl-1H-indol-5-yl)piperidin-1-yl)-2-oxoethyl)piperidine-3-carboxamide]	–
8	COc1ccc(-c2[nH]c3ccc(C4CCN(CC(=O)N(C)C)CC4)cc3c2C(C)C)cc1OC [Example 312, 2-(4-(2-(3,4-dimethoxyphenyl)-3-isopropyl-11H-indol-5-yl)piperidin-1-yl)-N,N-dimethylacetamide]	% inhibition of IL6 (TLR7; dose 0.001 mg/kg): 34%; % inhibition of IL6 (TLR7; dose 0.01 mg/kg): 39%; % inhibition of IL6 (TLR7; dose 0.1 mg/kg): 59%; % inhibition of IL6 (TLR7; dose 1 mg/kg): 82%
